The source of these data is patent publication US11999746B2, “Compounds” (GlaxoSmithKline Intellectual Property Development Limited, priority 2014, dated 2024).

Counter-ions that a name gives are not always drawn. Like-named read-outs stand apart in the source and are kept apart here.

The target of assay [1] is T1, recombinant human Lp-PLA2 (Homo sapiens, UniProt Q13093).
T1 sequence (Q13093 22-441): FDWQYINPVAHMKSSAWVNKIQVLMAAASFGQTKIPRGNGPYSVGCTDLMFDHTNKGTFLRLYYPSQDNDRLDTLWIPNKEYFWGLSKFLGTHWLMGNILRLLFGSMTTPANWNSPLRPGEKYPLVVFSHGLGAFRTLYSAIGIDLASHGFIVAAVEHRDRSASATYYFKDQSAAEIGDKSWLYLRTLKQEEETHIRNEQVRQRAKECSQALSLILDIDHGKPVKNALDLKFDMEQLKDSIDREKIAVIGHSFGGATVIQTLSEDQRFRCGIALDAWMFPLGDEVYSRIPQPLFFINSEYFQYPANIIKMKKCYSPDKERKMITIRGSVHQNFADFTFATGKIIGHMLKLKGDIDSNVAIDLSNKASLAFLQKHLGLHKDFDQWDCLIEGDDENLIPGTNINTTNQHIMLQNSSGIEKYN
The experiment in a line: (1b) hrThioPAF assay, recombinant human Lp-PLA2. The class given is biochemical. The settings on record: Examples 266-412 were tested here, one experiment or average of multiple experiments, read-out: rhLp-PLA2 (pIC50) (converted). The source says: 1-O-Hexadecyl-2-deoxy-2-thio-S-acetyl-sn-glyceryl-3-phosphorylcholine (2-thio-PAF) is a substrate for PAF-hydrolases (PAF-AH) commercially available from Cayman Chemical. Upon cleavage with PAF-AH, the free thiol is released at the sn-2 position and can then react with 7-diethylamino-3-(4′-maleimidylphenyl)-4-methylcoumarin (CPM) a thiol-reactive coumarin. This reaction (Michael addition) results in an increase in fluorescence. Inhibitors of Lp-PLA2 therefore prevent this cleavage and no fluorescent increase is observed.
The Thio-PAF assay was run as an unquenched 20 μL assay. The source plate containing the compounds to be tested was prepared by making 1:3 (by volume) serial dilution of the compounds within DMSO on 384-well microplate. Then, 5 μL of the compounds on compound source plate were transferred into 384 well Greiner 784076 (black) plates using STAR+(Hamilton) liquid dispenser. 10 μL of recombinant human Lp-PLA2 enzyme (20 pM rhLp-PLA2 in assay buffer of 50 mM HEPES, pH 7.4, 150 mM NaCl, 1 mM CHAPS) was added to each well of the plate. 5 μL of substrate comprising 40 μM 2-thio-PAF [from ethanol stock], 40 μM CPM [from a DMSO stock] and 400 μM NEM (N-ethylmaleimide) [made fresh daily in DMSO] in assay buffer (50 mM HEPES, pH 7.4, 150 mM NaCl, 1 mM CHAPS) was added to 384 well Greiner 784076 black plates. Plates were vortexed for 10 sec. The plate was covered to protect it from light and incubated for 20 min at 25° C. The plates were read for fluorescence intensity at ex: 380 nm/em: 485 nm using Envision plate reader (Perkin Elmer). Raw data were transferred to Excel software and pIC50 data, curve and QC analysis was conducted by using XL fit module in Excel.

Assay [2] deals with T2, Lp-PLA2 in human plasma (Homo sapiens, UniProt Q13093).
T2 construct: from tissue; host or cells: pooled human plasma
T2 sequence (Q13093 22-441): T1 sequence (Q13093 22-441)
The experiment in a line: (3b) Lp-PLA2 human plasma alternative Thio-PAF assay. The class given is biochemical. The settings on record: pooled human plasma, read-out: pIC50 in the Lp-PLA2 human plasma assay (converted). The protocol: (3b) Alternative Thio-PAF Assay
The human plasma assay utilizes the same thioester analog of PAF as described in (1b) “hr ThioPAF” assay. This assay may detect the activity of Lp-PLA2 in human plasma, as determined by specific inhibition by Lp-PLA2 inhibitors.
The thio-PAF assay was run as a quenched 20 μL assay. Compounds source plate was prepared by making 1:3 (by volume) serial dilution of the compounds into pure DMSO on 96-well microplate. 5 μL of compounds on compound source plate were transferred to 96-well Corning 3686 (black) low-volume plates by STAR+(Hamilton) liquid dispenser. 10 μL pooled human plasma, which was previously aliquoted and frozen, was added. Plates were centrifuged for 30 sec at 1000 rpm. After 15 minutes preincubation at room temperature, 5 μL of substrate solution comprising 2 mM 2-thio-PAF [from ethanol stock], 52 μM CPM [from a DMSO stock] and 2.5 mM NEM (N-ethylmaleimide) [made fresh daily in DMSO] in assay buffer (50 mM HEPES, pH 7.4, 150 mM NaCl, 1 mM CHAPS) was added to 96-well Corning 3686 (black) low-volume plates. After 3 mins, reaction was quenched with 10 μL of 5% aqueous trifluoroacetic acid (TFA). Plates were centrifuged 30 sec at 1000 rpm, covered to protect from light and incubated for 10 min at room temperature. Plates were read at ex: 380 nm/em: 485 nm using Envision plate reader (Perkin Elmer). Raw data were transferred to Excel software and pIC50 data, curve and QC analysis was conducted by using XL fit module in Excel.

[3] abbreviates: (3b) alternative Thio-PAF assay, Examples of 266-412 were tested here.

Consider `CC(C)OC(=O)N1CCN2c3cc(OCc4ccc(F)c(F)c4)nc(=O)n3CC2C1` (centres unmarked) [Example E307, Isopropyl 7-((3,4-difluorobenzyl)oxy)-9-oxo-3,4,11,11a-tetrahydro-1H-pyrazino[1′,2′:3,4]imidazo[1,2-c]pyrimidine-2(9H)-carboxylate], for which the IC50 was not above 10000 nM in assay [1] and not above 100 nM in assay [2] (setting [3]).

Take `O=c1nc(OCc2cc(F)c(Oc3ccnc(C(F)(F)F)c3)c(F)c2)cc2n1CC1(COC1)N2` [Example E395, 7-((3,5-difluoro-4-((2-(trifluoromethyl)pyridin-4-yl)oxy)benzyl)oxy)-1H-spiro[imidazo[1,2-c]pyrimidine-2,3′-oxetan]-5(3H)-one]: the IC50 is 0.794 nM in assay [1] and not above 100 nM in assay [2] (setting [3]).

`N#Cc1cc(COc2cc3n(c(=O)n2)CC2CN(CC(F)(F)F)CCN32)ccc1F` (centres unmarked) [Example E322, 2-Fluoro-5-(((9-oxo-2-(2,2,2-trifluoroethyl)-2,3,4,9,11,11a-hexahydro-1H-pyrazino[1′,2′:3,4]imidazo[1,2-c]pyrimidin-7-yl)oxy)methyl)benzonitrile]: the IC50 in assay [1] was not above 10000 nM; in assay [2] (setting [3]), not above 100 nM.

In the case of `N#Cc1cccc(COc2cc3n(c(=O)n2)CC2CNCCN32)c1` (centres unmarked) [Example E272, 3-(((9-Oxo-2,3,4,9,11,11a-hexahydro-1H-pyrazino[1′,2′:3,4]imidazo [1,2-c]pyrimidin-7-yl)oxy)methyl) benzonitrile], the IC50 in assay [1] was not above 10000 nM; in assay [2] (setting [3]), not above 100 nM.

`O=c1nc(OCc2ccc(F)c(F)c2)cc2n1CC1CN(CC(F)(F)F)CCN21` (centres unmarked) [Example E338, 7-((3,4-Difluorobenzyl)oxy)-2-(2,2,2-trifluoroethyl)-3,4,11,11a-tetrahydro-1H pyrazino[1′,2′:3,4]imidazo[1,2-c]pyrimidin-9(2H)-one trifluoroacetate]: the IC50 was 10 nM in assay [1] and not above 100 nM in assay [2] (setting [3]).

For the compound `CN1c2cc(OCc3cc(F)c(Oc4cnn(C)c4)c(F)c3)nc(=O)n2CC12COC2` [Example E397, 7-((3,5-Difluoro-4-((1-methyl-1H-pyrazol-4-yl)oxy)benzyl)oxy)-1-methyl-1H-spiro[imidazo[1,2-c]pyrimidine-2,3′-oxetan]-5(3H)-one], the figures for the IC50 in assay [1] and in assay [2] (setting [3]) were not above 10000 nM and not above 100 nM, respectively.

Turning to `O=c1nc(OCc2cc(F)c(Oc3ccnc(C(F)(F)F)c3)c(F)c2)cc2n1CC1CSCCN21` (centres unmarked) [Example E368, 7-((3,5-Difluoro-4-((2-(trifluoromethyl)pyridin-4-yl)oxy)benzyl)oxy) 3,4,11,11a-tetrahydropyrimido[6′,1′:2,3]imidazo[5,1-c][1,4]thiazin-9(1H)-one], the IC50 was not above 1 nM in assay [1] and not above 100 nM in assay [2] (setting [3]).

On to `CCC(=O)N1CCN2c3cc(OCc4ccc(F)c(C#N)c4)nc(=O)n3CC2C1` (centres unmarked) [Example E289, 2-Fluoro-5-(((9-oxo-2-propionyl-2,3,4,9,11,11a-hexahydro-1H-pyrazino[1′,2′:3,4]imidazo[1,2-c]pyrimidin-7-yl)oxy)methyl)benzonitrile 2,2,2-trifluoroacetate], for which the IC50 in assay [1] was not above 10000 nM; in assay [2] (setting [3]), not above 100 nM.

Regarding `CC(C)CC(=O)N1CCN2c3cc(OCc4ccc(F)c(C#N)c4)nc(=O)n3CC2C1` (centres unmarked) [Example E293, 2-Fluoro-5-(((2-(3-methylbutanoyl)-9-oxo-2,3,4,9,11,11a-hexahydro-1H pyrazino[1′,2′:3,4]imidazo[1,2-c]pyrimidin-7-yl)oxy)methyl)benzonitrile], the IC50 in assay [1] was not above 10000 nM; in assay [2] (setting [3]), not above 100 nM.

Regarding `O=C1CN2c3cc(OCc4cc(F)c(Oc5cncc(C(F)(F)F)c5)c(F)c4)nc(=O)n3CC2CN1` (centres unmarked) [Example E352, 7-((3,5-Difluoro-4-((5-(trifluoromethyl)pyridin-3-yl)oxy)benzyl)oxy)-11,11a-dihydro-1H-pyrazino[1,2′:3,4]imidazo[1,2-c]pyrimidine-3,9(2H,4H)-dione], the IC50 is 0.501 nM in assay [1] and not above 100 nM in assay [2] (setting [3]).

Regarding `CN1c2cc(OCc3ccc(F)c(F)c3)nc(=O)n2CC12COC2` [Example 398, 7-((3,4-Difluorobenzyl)oxy)-1-methyl-1H-spiro[imidazo[1,2-c]pyrimidine-2,3′-oxetan]-5(3H)-one], the IC50 in assay [1] is not above 10000 nM; in assay [2] (setting [3]) it was not above 100 nM.

On to `O=C([C@@H]1CCN1)N1CCN2c3cc(OCc4ccc(F)c(F)c4)nc(=O)n3CC2C1` (stereo partly drawn) [Example E339, 2-((S)-azetidine-2-carbonyl)-7-((3,4-difluorobenzyl)oxy)-3,4,11,11a-tetrahydro-1H-pyrazino[1′,2′:3,4]imidazo[1,2-c]pyrimidin-9(2H)-one], for which the IC50 in assay [1] was not above 10000 nM; in assay [2] (setting [3]) it was not above 100 nM.

Regarding `Cc1ccc(Oc2c(F)cc(COc3cc4n(c(=O)n3)CC3(COC3)N4C)cc2C#N)cn1` [Example 399, 3-Fluoro-5-(((1-methyl-5-oxo-3,5-dihydro-1H-spiro[imidazo[1,2-c]pyrimidine-2,3′-oxetan]-7-yl)oxy)methyl)-2-((6-methylpyridin-3-yl)oxy)benzonitrile], the IC50 was not above 10000 nM in assay [1] and not above 100 nM in assay [2] (setting [3]).

As to `O=c1nc(OCc2cc(F)c(Oc3cncc(C(F)(F)F)c3)c(F)c2)cc2n1CC1CNCCN21` (centres unmarked) [Example E273, 7-((3,5-Difluoro-4-((5-(trifluoromethyl)pyridin-3-yl)oxy)benzyl)oxy)-3,4,11,11a-tetrahydro-1H-pyrazino[1′,2′:3,4] imidazo [1,2-c]pyrimidin-9(2H)-one], the IC50 was not above 1 nM in assay [1] and not above 100 nM in assay [2] (setting [3]).

Turning to `N#Cc1cc(COc2cc3n(c(=O)n2)CC2CN(S(=O)(=O)C4CC4)CCN32)ccc1F` (centres unmarked) [Example E296, 5-(((2-(Cyclopropylsulfonyl)-9-oxo-2,3,4,9,11,11a-hexahydro-1H-pyrazino[1′,2′:3,4]imidazo[1,2-c]pyrimidin-7-yl)oxy)methyl)-2-fluorobenzonitrile 2,2,2-trifluoroacetate], the IC50 in assay [1] was not above 10000 nM; in assay [2] (setting [3]) it was not above 100 nM.

As to `O=c1nc(OCc2cc(F)c(Oc3cncc(C(F)(F)F)c3)c(F)c2)cc2n1CC1(CCN(Cc3ccccc3)CC1)N2` [Example 411, 1′-Benzyl-7-((3,5-difluoro-4-((5-(trifluoromethyl)pyridin-3-yl)oxy)benzyl)oxy)-1H-spiro[imidazo[1,2-c]pyrimidine-2,4′-piperidin]-5(3H)-one], the IC50 in assay [1] was not above 1 nM; in assay [2] ((3a) Thio-PAF assay, Examples 1-265 and 413-430 were tested here), not above 10000 nM; in assay [2] (setting [3]), not above 100 nM.

Regarding `CC(C)(N)CC(=O)N1CCN2c3cc(OCc4ccc(F)c(F)c4)nc(=O)n3CC2C1` (centres unmarked) [Example E334, 2-(3-Amino-3-methylbutanoyl)-7-((3,4-difluorobenzyl)oxy)-3,4,11,11a-tetrahydro-1H-pyrazino[1′,2′:3,4]imidazo[1,2-c]pyrimidin-9(2H)-one], the IC50 in assay [1] is not above 10000 nM; in assay [2] (setting [3]), not above 100 nM.
